From patent US11186576B2, “Pyrazolo[1,5-A][1,3,5]triazine and pyrazolo[1,5-A]pyrimidine derivatives as CDK inhibitors” (Aurigene Discovery Technologies Limited, priority 2015, dated 2021) come the findings set out here.

Where two headings read alike, the source gives them in different places.

In the experiment the target is CDK7/CycH/MNAT1 (Homo sapiens (Human), UniProt P50613). Nature of the experiment: Biochemical assay for CDK7 (TR-FRET kinase assay). As to conditions: for inhibition at 10 µM: read-out: % inhibition @ 10 μM. On the procedure:
The ability of compounds to inhibit CDK7 kinase activity was tested in a TR-FRET assay using 5 nM of CDK7/CycH/MNAT1 obtained from Invitrogen, USA. Test compounds were pre-incubated with the kinase at room temperature for 60 min. After incubation, substrate mix [100 nM Ultra-light MBP (Perkin Elmer, USA) and 1 mM ATP (Sigma)] was added. The above reaction was stopped by the addition of 40 mM EDTA after 60 minutes of kinase reaction. 1 nM Eu-labelled antiphospho-MBP antibody [Perkin Elmer, USA] was added, mixed well and the fluorescence emission at 615 nm and 665 nm [excitation at 340 nm] was measured. The final DMSO concentration in the assay was 1%. For IC50 determination, appropriate concentrations were made by ⅓^rd serial dilutions of 10 mM DMSO stock solution of test compound. All the fluorescence measurements were made in a Victor 3 Multilabel Counter [Perkin Elmer, USA]. The IC50 was determined by fitting the dose response data to sigmoidal curve fitting equation using GraphPad Prism software V5. To identify compounds that inhibit CDK7 irreversibly, time depended inhibition studies were carried by pre-incubating compound with the enzyme at three time points (20, 60 and 180 min) and carrying out assay as described above.
(In TR-FRET formats the signal depends on donor and acceptor labels being close together.)

[1] abbreviates: 10 μM compound, 60 min pre-incubation, 1 mM ATP.
Setting [2] is: 60 min pre-incubation, 1 mM ATP, read-out: IC50.

Chain of CDK7/CycH/MNAT1 (P50613 whole entry): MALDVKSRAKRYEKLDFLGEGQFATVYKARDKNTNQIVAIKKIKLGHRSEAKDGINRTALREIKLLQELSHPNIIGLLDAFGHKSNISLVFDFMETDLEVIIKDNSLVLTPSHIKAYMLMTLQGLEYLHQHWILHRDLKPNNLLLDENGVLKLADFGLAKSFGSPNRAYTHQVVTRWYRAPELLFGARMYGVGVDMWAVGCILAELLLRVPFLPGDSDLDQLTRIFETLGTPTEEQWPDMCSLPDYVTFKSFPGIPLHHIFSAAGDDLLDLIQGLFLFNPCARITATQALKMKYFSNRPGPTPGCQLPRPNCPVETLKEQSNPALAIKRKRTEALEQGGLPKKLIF
Chain of CDK7/CycH/MNAT1 (P51946 whole entry partner): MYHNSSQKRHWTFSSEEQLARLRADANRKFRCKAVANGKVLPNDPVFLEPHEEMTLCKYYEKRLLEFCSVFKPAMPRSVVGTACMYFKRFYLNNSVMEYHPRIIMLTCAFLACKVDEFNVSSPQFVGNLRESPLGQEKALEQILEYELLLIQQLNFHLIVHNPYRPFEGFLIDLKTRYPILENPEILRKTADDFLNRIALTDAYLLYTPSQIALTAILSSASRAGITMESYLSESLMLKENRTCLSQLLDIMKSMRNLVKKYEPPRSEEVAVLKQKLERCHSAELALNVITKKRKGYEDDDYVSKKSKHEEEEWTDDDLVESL
Chain of CDK7/CycH/MNAT1 (P51948 whole entry partner): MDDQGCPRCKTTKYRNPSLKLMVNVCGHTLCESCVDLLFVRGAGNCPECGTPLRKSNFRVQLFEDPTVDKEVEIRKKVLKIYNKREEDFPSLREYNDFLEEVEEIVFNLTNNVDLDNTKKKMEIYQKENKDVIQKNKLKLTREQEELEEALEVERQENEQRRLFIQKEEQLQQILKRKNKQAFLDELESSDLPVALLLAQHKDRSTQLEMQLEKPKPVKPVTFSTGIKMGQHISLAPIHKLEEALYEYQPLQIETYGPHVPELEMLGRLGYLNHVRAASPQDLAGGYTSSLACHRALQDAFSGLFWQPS

Usually IC50 stands for the concentration needed to halve the response being measured. As usually defined, the inhibition is how much of the control response was suppressed. On to `CC(C)c1cnn2c(NCc3cccc(OC(=O)N4CCN(C(=O)/C=C/CN(C)C)CC4)c3)nc(NC3CCOCC3)nc12` [Compound 75, 3-(((8-isopropyl-2-((tetrahydro-2H-pyran-4-yl)amino)pyrazolo[1,5-a][1,3,5]triazin-4-yl)amino)methyl)phenyl(E)-4-(4-(dimethylamino)but-2-enoyl)piperazine-1-carboxylate], for which the inhibition at 10 µM was 97%. The compound further gave an IC50 (IC50, 60 min pre-incubation, 1 mM ATP) below 300 nM.
With `C=CC(=O)N1CC[C@@H]1C(=O)Nc1cccc(CNc2nc(NC3CCOCC3)nc3c(C(C)C)cnn23)c1` [Compound 19, (R)-1-acryloyl-N-(3-(((8-isopropyl-2-((tetrahydro-2H-pyran-4-yl)amino)pyrazolo[1,5-a][1,3,5]triazin-4-yl)amino)methyl)phenyl)azetidine-2-carboxamide], under setting [1], the inhibition at 10 µM was found to be 100%. The IC50 under setting [2] is below 300 nM.
Regarding `C=CC(=O)N1C(C)CCCC1C(=O)Nc1cccc(CNc2nc(NC3CCOCC3)nc3c(C(C)C)cnn23)c1` (stereo not drawn) [Compound 40C, 1-acryloyl-N-(3-(((8-isopropyl-2-((tetrahydro-2H-pyran-4-yl)amino)pyrazolo[1,5-a][1,3,5]triazin-4-yl)amino)methyl)phenyl)-6-methylpiperidine-2-carboxamide], under setting [2], the IC50 is below 300 nM.
In the case of `CC(C)=CC(=O)N1CCC1C(=O)Nc1cccc(CNc2nc(NC3CCOCC3)nc3c(C(C)C)cnn23)c1` (stereo not drawn) [Compound 17, N-(3-(((8-isopropyl-2-((tetrahydro-2H-pyran-4-yl)amino)pyrazolo[1,5-a][1,3,5]triazin-4-yl)amino)methyl)phenyl)-1-(3-methylbut-2-enoyl)azetidine-2-carboxamide], the inhibition at 10 µM under setting [1] came to 84%. Moreover, the IC50 under setting [2] is above 1000 nM.
In the same order, the values of `CC(C)c1cnn2c(NCc3cccc(NC/C=C/C(=O)N(C)C)c3)nc(NC3CCOCC3)nc12` [Compound 49, (E)-4-((3-(((8-isopropyl-2-((tetrahydro-2H-pyran-4-yl)amino)pyrazolo[1,5-a][1,3,5]triazin-4-yl)amino)methyl)phenyl)amino)-N,N-dimethylbut-2-enamide] are 84% and above 1000 nM.
With `C=CC(=O)N1CCC(C(=O)Nc2cccc(CNc3nc(NC4CCCC(O)C4)nc4c(C(C)C)cnn34)c2)C1` (single isomer, unassigned) [Compound 12, 1-acryloyl-N-(3-(((2-((3-hydroxycyclohexyl)amino)-8-isopropylpyrazolo[1,5-a][1,3,5]triazin-4-yl)amino)methyl)phenyl)pyrrolidine-3-carboxamide], the inhibition at 10 µM under setting [1] worked out at 92%. Further, the IC50 under setting [2] lay within 300 to 1000 nM.
Turning to `C=CC(=O)N1CCCC(C(=O)Nc2ccc(CNc3nc(OC4CCN(C)CC4)nc4c(C(C)C)cnn34)c[n+]2[O-])C1` (stereo not drawn) [Compound 120, 2-(1-acryloylpiperidine-3-carboxamido)-5-(((8-isopropyl-2-((1-methylpiperidin-4-yl)oxy)pyrazolo[1,5-a][1,3,5]triazin-4-yl)amino)methyl)pyridine 1-oxide], the inhibition at 10 µM under setting [1] was found to be 93%. Also, under setting [2], the IC50 was below 300 nM.
Turning to `C#CC(=O)N1CCC1C(=O)Nc1cccc(CNc2nc(NC3CCOCC3)nc3c(C(C)C)cnn23)c1` (stereo not drawn) [Compound 66, N-(3-(((8-isopropyl-2-((tetrahydro-2H-pyran-4-yl)amino)pyrazolo[1,5-a][1,3,5]triazin-4-yl)amino)methyl)phenyl)-1-propioloylazetidine-2-carboxamide], the inhibition at 10 µM under setting [1] is 98%. Besides, the IC50 under setting [2] was below 300 nM.
In the same order, the values of `CC(C)c1cnn2c(NCc3ccc(NC(=O)/C=C/CN4CCCC4)cc3)nc(NC3CCOCC3)nc12` [Compound 63, (E)-N-(4-(((8-isopropyl-2-((tetrahydro-2H-pyran-4-yl)amino)pyrazolo[1,5-a][1,3,5]triazin-4-yl)amino)methyl)phenyl)-4-(pyrrolidin-1-yl)but-2-enamide] are 94% and 300 to 1000 nM.
In the case of `CC(C)c1cnn2c(NCc3cccc(NC(=O)C4CCN4C/C=C/C(=O)N(C)C)c3)nc(NC3CCOCC3)nc12` (stereo not drawn) [Compound 76, (E)-1-(4-(dimethylamino)-4-oxobut-2-en-1-yl)-N-(3-(((8-isopropyl-2-((tetrahydro-2H-pyran-4-yl)amino)pyrazolo[1,5-a][1,3,5]triazin-4-yl)amino)methyl)phenyl)azetidine-2-carboxamide], under setting [1], the inhibition at 10 µM stood at 81%. In addition, the IC50 under setting [2] was above 1000 nM.
In the same order, the values of `C=CC(=O)N1CCOCC1C(=O)Nc1ccc(CC)c(CNc2nc(NC3CCOCC3)nc3c(C(C)C)cnn23)c1` (stereo not drawn) [Compound 26, 4-acryloyl-N-(4-ethyl-3-(((8-isopropyl-2-((tetrahydro-2H-pyran-4-yl)amino)pyrazolo[1,5-a][1,3,5]triazin-4-yl)amino)methyl)phenyl)morpholine-3-carboxamide] are 95% and 300 to 1000 nM.
The like results for `C=CC(=O)N(C)CC(=O)Nc1cccc(CNc2nc(NC3CCOCC3)nc3c(C(C)C)cnn23)c1` [Compound 81, N-(2-((3-(((8-isopropyl-2-((tetrahydro-2H-pyran-4-yl)amino)pyrazolo[1,5-a][1,3,5]triazin-4-yl)amino)methyl)phenyl)amino)-2-oxoethyl)-N-methylacrylamide] were, in that order, 98% and below 300 nM.
The like results for `CC(C)c1cnn2c(NCc3cc(NC(=O)C4CCN(C(=O)/C=C/CN(C)C)C4)ccc3F)nc(NC3CCOCC3)nc12` (stereo not drawn) [Compound 70, (E)-1-(4-(dimethylamino)but-2-enoyl)-N-(4-fluoro-3-(((8-isopropyl-2-((tetrahydro-2H-pyran-4-yl)amino)pyrazolo[1,5-a][1,3,5]triazin-4-yl)amino)methyl)phenyl)pyrrolidine-3-carboxamide] were, in that order, 85% and 300 to 1000 nM.
Consider `C=CC(=O)Nc1ccc(C)c(C(=O)Nc2cccc(CNc3nc(NC4CCOCC4)nc4c(C(C)C)cnn34)c2)c1` [Compound 40B, 5-acrylamido-N-(3-(((8-isopropyl-2-((tetrahydro-2H-pyran-4-yl)amino)pyrazolo[1,5-a][1,3,5]triazin-4-yl)amino)methyl)phenyl)-2-methylbenzamide], for which, under setting [2], the half-maximal inhibitory concentration (IC50) is below 300 nM.
Regarding `CC(C)c1cnn2c(Nc3cccc(NC(=O)c4ccc(NC(=O)/C=C/CN(C)C)cc4)c3)nc(OC3CCN(C)CC3)nc12` [Compound 130, (E)-4-(4-(dimethylamino)but-2-enamido)-N-(3-((8-isopropyl-2-((1-methylpiperidin-4-yl)oxy)pyrazolo[1,5-a][1,3,5]triazin-4-yl)amino)phenyl)benzamide], the inhibition at 10 µM amounted to 97%. Under setting [2], the IC50 was below 300 nM.
For `C=CC(=O)N1CCCCC1C(=O)Nc1cccc(CNc2nc(N[C@H]3CCCOC3)nc3c(C(C)C)cnn23)c1` (stereo partly drawn) [Compound 40D, 1-acryloyl-N-(3-(((8-isopropyl-2-(((S)-tetrahydro-2H-pyran-3-yl)amino)pyrazolo[1,5-a][1,3,5]triazin-4-yl)amino)methyl)phenyl)piperidine-2-carboxamide], under setting [2], the IC50 lay within 300 to 1000 nM.
For `C=CC(=O)N1CCC(C(=O)Nc2cccc(Nc3nc(OC4CCN(C)CC4)nc4c(C(C)C)cnn34)c2)CC1` [Compound 127, 1-acryloyl-N-(3-((8-isopropyl-2-((1-methylpiperidin-4-yl)oxy)pyrazolo[1,5-a][1,3,5]triazin-4-yl)amino)phenyl)piperidine-4-carboxamide], the inhibition at 10 µM under setting [1] was 95%. For the same compound, the IC50 under setting [2] is below 300 nM.
Consider `CC(C)c1cnn2c(NC(C)c3cccc(NC(=O)C4CCCN(C(=O)/C=C/CN(C)C)C4)c3)nc(NC3CCOCC3)nc12` (stereo not drawn) [Compound 72, (E)-1-(4-(dimethylamino)but-2-enoyl)-N-(3-(1-((8-isopropyl-2-((tetrahydro-2H-pyran-4-yl)amino)pyrazolo[1,5-a][1,3,5]triazin-4-yl)amino)ethyl)phenyl)piperidine-3-carboxamide], for which the inhibition at 10 µM under setting [1] came out at 84%. In addition, the IC50 under setting [2] is 300 to 1000 nM.
As to `C=CC(=O)N1CCC(C(=O)Nc2cc(CNc3nc(NC4CCOCC4)nc4c(C(C)C)cnn34)ccc2F)C1` (stereo not drawn) [Compound 43, 1-acryloyl-N-(2-fluoro-5-(((8-isopropyl-2-((tetrahydro-2H-pyran-4-yl)amino)pyrazolo[1,5-a][1,3,5]triazin-4-yl)amino)methyl)phenyl)pyrrolidine-3-carboxamide], the inhibition at 10 µM under setting [1] was determined as 79%. Moreover, under setting [2], the IC50 fell in the range of 300 to 1000 nM.
The like results for `CC(C)c1cnn2c(NCc3cccc(NC(=O)/C=C/CN(C)C)c3)nc(NC3CCOCC3)nc12` [Compound 53, (E)-4-(dimethylamino)-N-(3-(((8-isopropyl-2-((tetrahydro-2H-pyran-4-yl)amino)pyrazolo[1,5-a][1,3,5]triazin-4-yl)amino)methyl)phenyl)but-2-enamide] were, in that order, 99% and below 300 nM.
Take `C=CC(=O)N1CCC(C(=O)Nc2cccc(CNc3nc(OCCOC)nc4c(C(C)C)cnn34)c2)C1` (stereo not drawn) [Compound 103, 1-acryloyl-N-(3-(((8-isopropyl-2-(2-methoxyethoxy)pyrazolo[1,5-a][1,3,5]triazin-4-yl)amino)methyl)phenyl)pyrrolidine-3-carboxamide]: the inhibition at 10 µM under setting [1] stood at 80%. Besides, the IC50 under setting [2] is above 1000 nM.
